Assay results published in article PMC8067314, “Uptake of Vitamins D2, D3, D4, D5, D6, and D7 Solubilized in Mixed Micelles by Human Intestinal Cells, Caco-2, an Enhancing Effect of Lysophosphatidylcholine on the Cellular Uptake, and Estimation of Vitamins D’ Biological Activities” (Nutrients, 2021).
Where two headings read alike, the source gives them in different places. Values belong to the molecule of their own block, whether it stands above or below them.

How the values were obtained:
[1] = system: rats; details: cited from earlier work
[2] = system: dispersed Caco-2 cells; assay: Uptake of vitamin D from mixed micelles by dispersed Caco-2 cells; assay type: in vitro ADME, human; details: NoPC mixed micelles, 2 h, cells dispersed with trypsin; compared among vitamins D2–D7
From the text: Since 2001, we have reported that lysophospholipids enhance the uptake of micellar carotenoids in Caco-2 cells. […] In the present study, using the same method, we examined whether the mechanism for the enhancing effect of lysophosphatidylcholine could be adapted to vitamin D, as well. To evaluate the impact of the degree of cell-cell adhesion/cell-matrix adhesion on vitamin D uptake by cells, we prepared in two different ways: i) dispersed Caco-2 cells without cell-cell adhesion/cell-matrix adhesion and ii) Caco-2 cells with insufficient cell-cell adhesion.
(i): The dispersed cells were prepared by trypsin treatment. After collecting the cells in the culture medium, the number of cells was counted and diluted with the medium. The cells were washed two times with FBS-free DMEM and then seeded in culture plate of 24-well for suspension cultures (SC plate; Greiner Bio-One, Frickenhausen, Germany) at a density of 15 × 10^4 cells per well containing the FBS-free DMEM (0.5 mL).
Subsequent operations are common to the two models of cells. The medium consisting of mixed micellar vitamin D (0.5 mL) was added to adhered cells or dispersed cells in individual wells containing FBS-free DMEM (0.5 mL), resulting in a total medium volume of 1.0 mL/well, and the final start concentrations of mixed micellar components were one-half the initial concentration. The cells were incubated in the same conditions as described above, i.e., in a CO2 incubator at 37 °C for 2 h, and then the cells were washed with 2 mM taurocholate/PBS, followed by two times with PBS. The vitamin D uptake and residual mixed micellar vitamin D were evaluated as the previous subsection, but the filtrate of residual mixed micellar vitamin D was diluted with a 2x-volume of H2O. The cellular protein content was also determined as above.

[3] = system: differentiated Caco-2 cells; assay: Uptake of vitamin D solubilized in mixed micelles by differentiated Caco-2 cells; assay type: in vitro ADME, human; details: 2 h; for Vitamin D uptake by differentiated Caco-2 cells: vitamin D 1 μM, compared among vitamins D2–D7
Experimental: Caco-2 cells were purchased from the American Type Culture Collection (Rockville, MD, USA). DMEM containing 10% FBS, 4 mM L-glutamine, penicillin and streptomycin (40 units/mL and 40 μg/mL, respectively), and nonessential amino acids (0.1 mM) were used as the culture medium. The cells were grown in the culture medium at 37 °C in a humidified atmosphere of 5% CO2 in air and then were cultured by passaging two times per week. We used differentiated Caco-2 cells, which have been widely used as a human intestinal model, for vitamin D uptake experiments. To induce differentiation of Caco-2 cells, the cells were seeded in culture plate of 24-well at a density of 5 × 10^4 cells per well containing 0.5 mL of the culture medium. Then, the medium was changed with fresh medium two times per week for 20–22 d. We have previously reported that the cell monolayers obtained by this method had sufficient cell-cell adhesion.
The mixed micelles were prepared as described in our previous reports. All of the components, i.e., taurocholate, monoolein, oleic acid, lysophosphatidylcholine, and vitamin D, were dissolved in an appropriate solvent. Portions of these solvent solutions were moved to glass tubes. The solvent was dried up with argon gas and further centrifugal evaporator. The dry matter was dispersed into FBS-free DMEM (same as the culture medium described above but without FBS). To remove any vitamin D not solubilized in the micelles, the resulting solution was passed through a filter (the pore size was 0.2-μm). The materials of mixed micelle and their concentrations were taurocholate (2 mM), monoolein (100 μM), oleic acid (33 μM), lysophosphatidylcholine (0 or 50 μM), and vitamin D (1 μM), respectively, unless otherwise stated. The concentrations were same as those used in our previous study. […] One part of the mixed micelles was diluted with four parts of methylene chloride/methyl alcohol (1:4, v/v), and then a portion (30 μL) was analyzed by high-pressure liquid chromatography (HPLC) as explained in the “2.8. […]

[4] = target: T1, Niemann-Pick C1-like 1 (NPC1L1) (Homo sapiens, UniProt Q9UHC9); assay: Inhibitory effect of ezetimibe on vitamin D uptake by differentiated Caco-2 cells (facilitated diffusion); assay type: in vitro ADME; details: 150 μM ezetimibe pretreatment 2 h
T1 construct: host or cells: differentiated Caco-2 cells
T1 sequence (Q9UHC9 22-1359): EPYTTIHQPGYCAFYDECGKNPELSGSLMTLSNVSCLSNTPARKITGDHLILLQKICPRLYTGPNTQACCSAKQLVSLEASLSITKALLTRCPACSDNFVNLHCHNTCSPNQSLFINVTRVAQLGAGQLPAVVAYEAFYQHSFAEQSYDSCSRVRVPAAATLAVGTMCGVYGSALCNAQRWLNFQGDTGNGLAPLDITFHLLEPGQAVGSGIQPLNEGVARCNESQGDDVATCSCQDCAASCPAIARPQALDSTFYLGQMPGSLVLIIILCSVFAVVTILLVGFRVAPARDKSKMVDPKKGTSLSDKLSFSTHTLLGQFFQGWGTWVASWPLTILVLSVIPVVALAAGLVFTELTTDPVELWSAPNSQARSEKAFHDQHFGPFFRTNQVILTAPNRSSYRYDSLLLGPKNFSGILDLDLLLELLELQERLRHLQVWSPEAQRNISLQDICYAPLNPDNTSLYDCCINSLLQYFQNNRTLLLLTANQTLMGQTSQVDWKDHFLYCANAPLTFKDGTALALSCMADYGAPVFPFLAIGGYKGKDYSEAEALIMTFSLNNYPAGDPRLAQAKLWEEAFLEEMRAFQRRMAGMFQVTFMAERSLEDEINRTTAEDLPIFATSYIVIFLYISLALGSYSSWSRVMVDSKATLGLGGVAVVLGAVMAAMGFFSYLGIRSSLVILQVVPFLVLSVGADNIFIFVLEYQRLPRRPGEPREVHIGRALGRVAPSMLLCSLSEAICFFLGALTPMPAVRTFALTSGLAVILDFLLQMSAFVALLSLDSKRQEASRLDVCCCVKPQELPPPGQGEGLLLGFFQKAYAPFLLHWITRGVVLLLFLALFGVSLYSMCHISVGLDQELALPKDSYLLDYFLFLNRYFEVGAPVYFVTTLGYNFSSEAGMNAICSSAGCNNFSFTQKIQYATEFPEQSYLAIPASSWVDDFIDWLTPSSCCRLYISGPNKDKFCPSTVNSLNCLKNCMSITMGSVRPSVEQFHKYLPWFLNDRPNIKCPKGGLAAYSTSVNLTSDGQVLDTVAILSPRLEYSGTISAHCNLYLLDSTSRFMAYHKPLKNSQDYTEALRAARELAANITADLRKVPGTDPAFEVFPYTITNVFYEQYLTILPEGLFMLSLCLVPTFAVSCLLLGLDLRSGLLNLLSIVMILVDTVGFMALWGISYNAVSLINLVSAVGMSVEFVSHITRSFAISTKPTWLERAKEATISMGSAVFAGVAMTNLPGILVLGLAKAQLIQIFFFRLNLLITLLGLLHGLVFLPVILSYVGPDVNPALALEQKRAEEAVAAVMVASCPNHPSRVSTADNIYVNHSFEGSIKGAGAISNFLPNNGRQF
Experimental: In the present study, we evaluated the involvement of facilitated diffusion in the cellular uptake of each mixed micellar vitamin D2–D7 by using ezetimibe, an inhibitor of the protein Niemann-Pick C1-like 1 (NPC1L1). Ezetimibe was dissolved in dimethyl sulfoxide (DMSO), and then was added at a final concentration of 150 μM to the culture medium. At this time, the final concentration of DMSO was 1.5% (v/v). The differentiated Caco-2 cells were preincubated at 37 °C for 2 h with ezetimibe-containing culture medium (0.5 mL). The cells were washed two times with FBS-free DMEM (0.5 mL) and then treated with the medium containing mixed micellar vitamin D (0.5 mL) for 2 h, as described above. After treatment, cellular vitamin D, residual mixed micellar vitamin D, and the cellular protein content were evaluated as described in the previous subsection.

[5] = system: differentiated Caco-2 cells; assay: Cellular cholesterol in differentiated Caco-2 cells treated with mixed micelles containing lysophosphatidylcholine; assay type: cell-based, human; details: 2 h, no vitamin D
Experimental: The saponification reaction was performed as follows. A portion (0.8 mL) of the cell homogenate was mixed with 200 μL of 40 μM β-sitosterol/ethyl alcohol as an internal standard, 85 μL of 10 M KOH, and 0.6 mL ethyl alcohol and then incubated at 60 °C for 2 h under argon gas. After cooling the reaction solution, cholesterol was extracted with ethyl acetate and n-hexane in the same manner as the extraction of vitamin D described above. The extract was additionally washed with 0.8 mL H2O before the solvent completely dried and then dissolved in 200 μL of methylene chloride/methyl alcohol/H2O (9:81:10, v/v/v). An aliquot (40 μL) was then subjected to HPLC as described in the “2.8. HPLC Analysis” subsection below. The cellular protein content was also determined as above.
Vitamin D and cholesterol were analyzed by using the HPLC system and columns which were the same as in our previous report. Mobile phase X was ethanenitrile/methyl alcohol/H2O (75:15:10, v/v/v), mobile phase Y was methyl alcohol/ethyl acetate (70:30, v/v), and mobile phase Z was methyl alcohol/isopropyl alcohol (70:30, v/v). These mobile phases contained 0.1% ammonium acetate. […] Vitamin D and cholesterol were quantified from the peak area at 265 nm and 210 nm, respectively, by using the respective calibration curve of the authentic standard.

Compound: C=C1CC[C@H](O)C/C1=C/C=C1\CCC[C@]2(C)[C@@H]([C@H](C)CCCC(C)C)CC[C@@H]12 [Vitamin D3]
Anti-rickets activity, comparison of vitamins D ([1]; line test, vitamins D provided as a crystal): highest activities and were similar

Compound: C=C1CCC(O)C/C1=C/C=C1\CCCC2(C)C1CCC2C(C)CCC(CC)C(C)C (stereo not drawn) [Vitamin D5]
Vitamin D uptake by differentiated Caco-2 cells ([3]; NoPC mixed micelles (without lysophosphatidylcholine)): lower by vitamin D5 than by other vitamins D | Vitamin D uptake by differentiated Caco-2 cells ([3]; lysoPC mixed micelles (lysophosphatidylcholine 50 μM)): tended to be lower than that of other vitamins D | Anti-rickets activity relative to that of vitamin D2 ([1]; UV-irradiated precursors, not crystals): 1/70 | Anti-rickets activity relative to that of vitamins D2 and D3 as UV irradiation precursors ([1]; UV-irradiated precursors): 1/40 | Anti-rickets activity relative to that of vitamin D3 ([1]; line test, crystal): 1/180 | Vitamin D uptake by dispersed Caco-2 cells [2]: no tendency toward decreased vitamin-D5 uptake

Compound: C=C1CCC(O)C/C1=C/C=C1\CCCC2(C)C1CCC2C(C)/C=C/C(CC)C(C)C (stereo not drawn) [Vitamin D6]
Anti-rickets activity ([1]; UV-irradiated precursors): little or no activity | Vitamin D uptake by dispersed Caco-2 cells [2]: higher than those of vitamins D2 and D3

Compound: O=C1[C@H](CC[C@H](O)c2ccc(F)cc2)[C@@H](c2ccc(O)cc2)N1c1ccc(F)cc1 [ezetimibe]
Vitamin-D3 uptake blocked by ezetimibe [4]: 20–30% | inhibition at 150 µM ([4]; relative to vehicle control, NoPC and lysoPC mixed micelles, read-out: Inhibition of the uptakes of vitamins D2–D7 by ezetimibe): ~20%

Compound: CCCCCCCCCCCCCCCC(=O)OC[C@@H](O)COP(=O)([O-])OCC[N+](C)(C)C [lysophosphatidylcholine, 1-16:0-2-OH-sn-glycerol-3-phosphocholine]
Enhancement of vitamin D uptake by lysophosphatidylcholine compared with NoPC ([3]; differentiated Caco-2 cells, lysophosphatidylcholine 50 μM in mixed micelles, average for six vitamin D species): 2.5 times | Effect on cellular cholesterol amounts ([5]; lysophosphatidylcholine at <100 μM in mixed micelles): tended to decrease the cellular cholesterol, but the decrease was not significant | Effect on cellular cholesterol amounts ([5]; lysophosphatidylcholine at >150 μM in mixed micelles): significantly decreased the cellular cholesterol

More lines, main results first:

Vitamin D uptake by dispersed Caco-2 cells [2]: higher than those of vitamins D2 and D3
Compound: C=C1CCC(O)C/C1=C/C=C1\CCCC2(C)C1CCC2C(C)CC[C@H](C)C(C)C (stereo partly drawn) [Vitamin D4]
Anti-rickets activity as percentage of that of vitamin D2 ([1]; line test, crystal): 50–75%

Vitamin D uptake by dispersed Caco-2 cells [2]: higher than those of vitamins D2 and D3
Compound: C=C1CCC(O)C/C1=C/C=C1\CCCC2(C)C1CCC2C(C)CC[C@@H](C)C(C)C (stereo partly drawn) [Vitamin D7]
Anti-rickets activity relative to that of vitamin D2 ([1]; UV-irradiated precursors): 1/10
